Measurements as given in EP1276895B1, “METHOD FOR THE IDENTIFICATION OF ACTIVE SITE PROTEASE INACTIVATORS” (THE UNIVERSITY OF GEORGIA RESEARCH FOUNDATION, INC., priority 2000, dated 2001).
Residues, ends and D or L forms follow the SMILES beside them. *: point of attachment. AFC = O=c1cc(C(F)(F)F)c2ccc(N*)cc2o1; Cbz = O=C(OCc1ccccc1)*; CH2F = FC*

How the values were obtained:
Trypsin (serine) = assay: Differential cleavage (selectivity) test, Trypsin; format: biochemical, human; conditions: 0.15 M PBS pH 8.0, 100 mM CaCl2, substrate Z-R-AFC
Procedure: In order to perform the assay, the vehicle (for Step VI) or inhibitor (for Step IX) were incubated with the appropriate substrate in the correct assay buffer and allowed to equilibrate. Subsequently, the protease was added, and the assay was allowed to incubate for an appropriate time. The concentrations used in this experiment were as follows: Vehicle was set up at 4 X 10^-5 M in final assay buffer; Inhibitor was set up at 3 X 10^-10 M in the final assay buffer. Accordingly, the dosages employed should be the minimal amount of vehicle or inhibitor necessary to induce inhibition. […] Substrates were set up based upon the preferred substrate for cleavage of the particular enzyme.
Positive controls were set up similarly as described for test controls, except that solvent was added in substitution for the inhibitor or vehicle (in a volume equal to the volume of inhibitor or vehicle addition). All of the inhibitors and vehicles could be dissolved in dimethylsulfoxide (DMSO), and therefore, this was the solvent of choice. Negative controls were set up by adding the inhibitor or vehicle and the preferred substrates in a tube without the protease. All potential non-proteolytic liberation of AFC was therefore controlled for in this tube (a feature which also insured stability of the AFC substrates, since these substrates will freely liberate AFC when unstable).
All controls were set up in triplicate, and experiments were repeated a minimum of five times.
Percent inhibition was calculated as: % Inhibition = ((AFC positive for ʺSIʺ-AFC negative for ʺSIʺ)-(AFC test-AFC negative for ʺSIʺ))/(AFC positive for ʺSIʺ-AFC negative for ʺSIʺ) × 100 [formula] In this preliminary test, we employed the following human-derived enzymes (with indicated mechanistic class): Cathepsin B (cysteine), Cathepsin L (cysteine), Cathepsin H (cysteine), Cathepsin D (aspartic) Trypsin (serine), the purified Taenia solium cysteine protease, and the Taenia solium crude mix. Cathepsin B was prepared in an assay buffer of 10 mM L-cysteine in 0.4 M Citrate buffer, pH 6.1, using Z-ARR-AFC as the cleavage substrate. Cathepsin L was prepared in an assay buffer of 10 mM L-cysteine in 0.4 M Citrate buffer, pH 5.5, using Z-FR-AFC as the cleavage substrate. Cathepsin H was prepared in an assay buffer of 10 mM L-cysteine in 0.15 M PBS buffer, pH 6.8, using L-R-AFC as the cleavage substrate. Cathepsin D was prepared in an assay buffer of 0.15 M PBS, pH 7.1, using Z-RGFFP-AFC as the cleavage substrate. Trypsin was prepared in an assay buffer of 0.15 M PBS, pH 8.0, supplemented with 100 mM CaCl2 and with Z-R-AFC as the cleavage substrate. Enzyme was incubated so that it was at least 50 times less than the concentration of substrate in order to insure saturating conditions.

Taenia solium crude mix = assay: Competitor assay of vehicles against high Vmax substrate cocktails (Step III), crude mix; format: biochemical; conditions: for V Value: V = P * M
Procedure: Step III for a crude mix proceeds it would for a purified protease, except that Vm is used instead of kcat.
The experiment began with a competitor test between the noncleaved low Vmax substrates and the highest Vmax substrate, Z-Phe-Arg-AFC. Concentrations were varied between the low Vmax substrate and Z-Phe-Arg-AFC, as described above under "refinement of assay" until a relative inhibition profile was obtained.
Percent inhibition was calculated as: %Inhibition =; ((AFC positive for"Y"-AFC negative for"Y")-(AFC test-AFC negative for"Y")X100)/(AFC positive for "Y"-AFC negative for "Y") [formula]
One of the most intriguing findings in this experiment was that a highly similar inhibition pattern for the competitor assay was noted when the crude mix was employed as the source of the target protease. Although there were some variations in the effects of inhibitor dilution, the most highly ranked vehicles remained inhibitory consistently in comparison to the profile with the target protease. The relative profile and composition of the top tiers of vehicles was identical. Z-LLL-AFC, Z-LLY-AFC, Mu-LY-AFC, Boc-VPR-AFC, Z-SY-AFC, Z-RR-AFC, Z-FLF-AFC, Z-LGR-AFC consistently presented as the top eight vehicles (Fig. 5b), respectively, based upon their V values (Table 2). […] It was notable that the three vehicles had very similar V values. […] As was mentioned, this vehicle along with Z-LLL-AFC and Z-LLY-AFC, were consistently the most inhibitory vehicles. The V values of the most inhibitory vehicle series are shown below in Table 2. Again, a clear break between the first and second tier vehicles could be noted with the V value. Table 2. Vehicles and V value rankings.

[1] = inhibitor 3 X 10^-10 M, 0.0003 µM

| Compound | % Inhibition (Trypsin (serine); vehicle 4 X 10^-5 M, 40 µM) [%] | Tier (Taenia solium crude mix) | V Value (Taenia solium crude mix) | % Inhibition (Trypsin (serine); [1]) [%] |
| --- | --- | --- | --- | --- |
| CC(C)C[C@H](NC(=O)OCc1ccccc1)C(=O)N[C@@H](CC(C)C)C(=O)N[C@@H](CC(C)C)C(=O)Nc1ccc2c(C(F)(F)F)cc(=O)oc2c1 [Z-LLL-AFC, Z-Leu-Leu-Leu-AFC] (Cbz-Leu-Leu-Leu-{AFC}) | 0 | 1 (The first tier was composed of those vehicles, which produced inhibition greater than 50% when in the presence of the 1.4% cocktail) | 0.611 |  |
| CC(C)C[C@H](NC(=O)[C@H](CC(C)C)NC(=O)[C@H](CC(C)C)NC(=O)OCc1ccccc1)C(=O)CF [Z-LLL-FMK, Z-Leu-Leu-Leu-fluoromethylketone] (Cbz-Leu-Leu-Leu-CH2F) |  |  |  | 0 |
| CC(C)C[C@H](NC(=O)OCc1ccccc1)C(=O)N[C@@H](CC(C)C)C(=O)N[C@@H](Cc1ccc(O)cc1)C(=O)Nc1ccc2c(C(F)(F)F)cc(=O)oc2c1 [Z-LLY-AFC, Z-Leu-Leu-Tyr-AFC] (Cbz-Leu-Leu-Tyr-{AFC}) | 0 | 1 (The first tier was composed of those vehicles, which produced inhibition greater than 50% when in the presence of the 1.4% cocktail) | 0.55 |  |
| CC(C)C[C@H](NC(=O)OCc1ccccc1)C(=O)N[C@@H](CC(C)C)C(=O)N[C@@H](Cc1ccc(O)cc1)C(=O)CF [Z-LLY-FMK, Z-Leu-Leu-Tyr-FMK] (Cbz-Leu-Leu-Tyr-CH2F) |  |  |  | 0 |
| Mu-Leu-Tyr-AFC [Mu-LY-AFC] | 0 | 1 (The first tier was composed of those vehicles, which produced inhibition greater than 50% when in the presence of the 1.4% cocktail) | 0.45 |  |
